# Measurements from article PMC4467886 (Archives of biochemistry and biophysics, 2008).
# Target: T1, 5,10-methenyltetrahydrofolate synthetase (MTHFS) (Mus musculus, UniProt Q9D110)
# T1 sequence (Q9D110 2-203): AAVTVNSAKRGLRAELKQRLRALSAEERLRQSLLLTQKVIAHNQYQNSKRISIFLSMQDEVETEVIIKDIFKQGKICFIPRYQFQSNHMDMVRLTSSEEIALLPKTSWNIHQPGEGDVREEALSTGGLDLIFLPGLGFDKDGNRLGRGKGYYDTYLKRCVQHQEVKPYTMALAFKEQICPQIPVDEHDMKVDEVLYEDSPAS
# Test: spectrophotometric MTHFS activity assay
# Type: biochemical
row,SMILES,Ki
1,Nc1nc2c(c(=O)[nH]1)C[C@@H](CCc1ccc(C(=O)N[C@@H](CCC(=O)O)C(=O)O)s1)CN2 [LY309887],6 ± 1 µM
2,Nc1nc2[nH]cc(CCc3ccc(C(=O)N[C@@H](CCC(=O)O)C(=O)O)cc3)c2c(=O)[nH]1 [Pemetrexed],48 ± 11 µM
3,Nc1nc2c(c(=O)[nH]1)C[C@@H](CCc1ccc(C(=O)N[C@@H](CCC(=O)O)C(=O)O)cc1)CN2 [Lometrexol],9 ± 3 µM
